Entries after “also recorded” stand apart in the source; their conditions may differ. Read-outs that look alike come from different tables or passages of the source.
What was measured:
[1] = target: T1, thymidine phosphorylase (TP), recombinant E. coli TP enzyme (Escherichia coli, UniProt P07650); experiment: Thymidine phosphorylase inhibition assay (spectrophotometric); format: biochemical; conditions: 1.5 mM thymidine, 30°C, pH 7.0, 290 nm, test compounds screened at 500 μM
T1 construct: purchased Sigma Aldrich, USA
T1 sequence (P07650 whole entry): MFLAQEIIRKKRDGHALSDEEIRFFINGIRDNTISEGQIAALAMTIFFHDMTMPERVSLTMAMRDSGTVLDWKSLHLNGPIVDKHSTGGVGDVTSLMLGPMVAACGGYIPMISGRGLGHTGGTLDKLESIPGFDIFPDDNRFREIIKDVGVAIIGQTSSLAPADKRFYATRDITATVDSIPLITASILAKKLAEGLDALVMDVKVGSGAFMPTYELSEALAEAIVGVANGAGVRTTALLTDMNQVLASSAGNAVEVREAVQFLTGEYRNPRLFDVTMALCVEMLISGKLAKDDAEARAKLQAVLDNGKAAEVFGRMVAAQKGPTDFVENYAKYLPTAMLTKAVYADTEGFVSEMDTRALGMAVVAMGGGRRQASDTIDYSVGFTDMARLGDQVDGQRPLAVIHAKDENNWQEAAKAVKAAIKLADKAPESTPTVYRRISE
Protocol: In the current study, we have used commercially available recombinant E. coli TP enzyme, as human TP is not easily accessible.
Thymidine phosphorylase inhibition assay was carried out spectrophotometrically. Briefly, 0.058 U of TP enzyme (E.C. No. 2.4.2.4, E. coli) was incubated with 500 μM of test compounds at 30°C for 10 minutes. After that 1.5 mM of substrate thymidine was added to 96-well plate, and changes in absorbance were monitored for 10 minutes at 290 nm in microtiter plate reader (Spectramax, M5, Molecular Devices, CA, USA). Enzyme and substrate solution were prepared in 50 mM phosphate buffer of pH 7.0, while test compounds were prepared in DMSO (final concentration 4.5%).
Enzyme activity was measured under steady-state conditions by observing changes in absorbance for 10 min (at 290 nm) on microtiter plate reader (Spectra Max M5, Molecular Devices, CA, USA). Changes in absorbance upon addition of test compounds were analyzed with the SoftMax Pro 4.8 software which was purchased from Molecular Devices, CA, USA. To calculate the percent inhibition, following formula was used: % Inhibition = 100-Absorbance of test compound/Absorbance of control×100
Inhibitory potential of test compounds is represented in Figs 1–4 as IC50 value (Inhibitory concentration). […] It was calculated by measuring the effects of different concentrations of inhibitors on the degradation of thymidine. EZ-Fit, Enzyme kinetics software (purchased from Perrella Scientific, Inc., USA) was used to deduce the IC50 values.

[2] = tested on: mouse fibroblast (3T3) cell line; experiment: In vitro MTT cytotoxicity assay; format: cell-based; conditions: 3T3 cells, 48 hrs incubation
Protocol: (§1) The reduction of MTT can only occur in metabolically active cell, so the enzyme activity is actually a measure of cell viability.
(§2) Briefly, the mouse fibroblast cells (3T3) were cultured in DMEM media containing 5% FBS, 100 IU/ mL penicillin, and 100 μg/ mL streptomycin. Cell suspension (5×10^4cells/ mL) was dispensed in flat-bottomed 96-well plates, and incubated at 37°C and with 5% CO2. After the overnight incubation, old media was aspirated and fresh media containing different concentrations of compounds (prepared in DMSO) were added, and plate was further incubated for 48 hrs. After that, MTT dye (0.5 mg/ mL) was added into each well, and the plate was further incubated for 4 hrs. Following this, DMSO (100 μL) was added into each well, and the level of MTT reduction to formazan with in the cells was calculated by taking the absorbance at 540 nm using a micro plate reader (Spectra Max plus, Molecular Devices, CA, USA).
(§3) Cellular viability was measured for 10 min, at 570 nm on microtiter plate reader. Changes in absorbance upon addition of test compounds were analyzed with the SoftMax Pro 4.8 software which was purchased from Molecular Devices, CA, USA. Percent inhibition was calculated using the formula mentioned earlier.
(§4) It was calculated by measuring the effects of different concentrations of inhibitors on the growth of cells. EZ-Fit, Enzyme kinetics software was used to deduce the IC50 values.

[3] = target: T2, thymidine phosphorylase (TP) enzyme (Escherichia coli, UniProt P07650); experiment: Mechanistic (kinetic) studies on TP, Lineweaver-Burk plot and secondary re-plot; format: biochemical, E. coli; conditions: for Type of inhibition: Lineweaver-Burk plot, substrate thymidine
T2 construct: purchased Sigma Aldrich, USA
T2 sequence (P07650 whole entry): as above
Protocol: In mechanistic studies, TP enzyme was incubated with different concentrations of inhibitors at 30°C for 10 min. Reaction was then initiated by adding four different concentrations of substrate, i.e. thymidine (0.1875–1.5 mM). Enzyme activity was measured under steady state conditions by measuring changes in absorbance for another 10 min at 30°C at 290 nm, on microtiter plate reader (Spectramax, M5, Molecular Devices, CA, USA). Every experiment is performed in triplicate.
Lineweaver-Burk plot was used to determine the type of inhibition, where the reciprocal of rate of the reaction were plotted against the reciprocal of substrate concentration. Dissociation constant (Ki) were determined by secondary re-plot of Lineweaver-Burk plots. Kinetic data was analysed by GraFit 7 data analysis software (purchased from Erithacus Software Limited, UK).

[4] = In vitro MTT cytotoxicity assay; format: cell-based, mouse; conditions: mouse, 3T3 mouse fibroblast cells, 3T3 cells, 48 hrs incubation, read-out: Cytotoxicity IC50 (μM ± SD)
Protocol: as §1, §2, §3, §4

[5] = read-out: TP Inhibition IC50 (μM ± SEM)
[6] = thymidine 0.1875–1.5 mM, 30°C, secondary re-plot of Lineweaver-Burk plot, read-out: Ki ± SEM (dissociation constant)

In the case of `COc1c2ccoc2cc2oc(=O)ccc12` [Compound 7], the IC50 [1, 5] is reported as 344.2 ± 1.2 µM.

In the case of `O=c1cc(-c2ccccc2)oc2cc(O)cc(O)c12` [Compound 4], the “TP Inhibition IC50 (μM ± SEM)” value [1] is reported as “inactive”.

In the case of `C[C@@H]1C[C@@H]([C@H](O)CC2CC(=O)NC(=O)C2)C(=O)[C@@H](C)C1` [Cyclohexamide, cycloheximide, reference compound], the IC50 ([2]; read-out: Cytotoxicity IC50 (μM ± SD)) is reported as 0.2 ± 0.1 µM.

In the case of `O=c1cc(-c2ccc(O)cc2)oc2cc(O)cc(O)c12` [Compound 3], the “TP Inhibition IC50 (μM ± SEM)” value [1] is reported as “inactive”.

With `C[C@H](Cc1ccc(O)c(O)c1)[C@@H](C)Cc1ccc(O)c(O)c1` [Compound 18, Masoprocol] the Type of inhibition [3] was “competitive inhibitor”, the Ki [3, 6] was 25.6 ± 0.008 µM and the “Cytotoxicity IC50 (μM ± SD)” value [2] was “non-toxic; also recorded: non-cytotoxic”. The IC50 [1, 5] was 44 ± 0.5 µM.

`O=C(O)/C=C/c1ccccc1` [Compound 15, Cinnamic acid] showed an IC50 ([1]; TP Inhibition IC50 (μM ± SEM)) of 349.7 ± 1.4 µM.

In the case of `COc1cc2ccc(=O)oc2cc1O` [Compound 9], the Type of inhibition [3] is reported as “Non-competitive”, the Ki [3, 6] is reported as 419 ± 0.001 µM and the IC50 [1, 5] is reported as 193.4 ± 1 µM.

For `O=c1cc(-c2ccccc2)oc2ccccc12` [Compound 1], the Type of inhibition [3] was “Uncompetitive”, the Ki [3, 6] was 225 ± 0.002 µM and the IC50 at 48 h [4] was 29.1 ± 0.61 µM. It also gave an IC50 [1, 5] of 195.1 ± 1.1 µM.

With `COc1cc2c(cc1OC)-c1c(OC)c(OC)cc3c1[C@H](C2)N(C)CC3` [Compound 11, Glaucine HBr] the Type of inhibition [3] was “Uncompetitive”, the Ki [3, 6] was 180 ± 0.01 µM and the IC50 [1, 5] was 238.5 ± 2.1 µM.

For `O=c1ccc2ccccc2o1` [Compound 6, coumarin], the Type of inhibition [3] was “Uncompetitive”, the Ki [3, 6] was 171 ± 0.001 µM and the IC50 [1, 5] was 420 ± 6.15 µM.

In the case of `COc1cc2ccc(=O)oc2cc1O[C@@H]1O[C@H](CO[C@@H]2OC[C@](O)(CO)[C@H]2O)[C@@H](O)[C@H](O)[C@H]1O` [Compound 10], the Ki [3] is reported as 145 ± 0.001 µM, the Type of inhibition [3] is reported as “Uncompetitive” and the IC50 ([1]; TP Inhibition IC50 (μM ± SEM)) is reported as 295.2 ± 2 µM.

In the case of `COc1cc(O)c2c(=O)cc(-c3c(OC)ccc(O)c3O)oc2c1` [Compound 2], the IC50 [1, 5] is reported as 113 µM.

In the case of `O=c1[nH]c(=O)c2cc[nH]c2[nH]1` [7-Deazaxanthine, 7-deazaxanthine, reference compound], the Type of inhibition [3] is reported as “Non-competitive”.

For `CC1(C)C=Cc2c(ccc3ccc(=O)oc23)O1` [Compound 8], the Type of inhibition [3] was “Uncompetitive”, the Ki [3, 6] was 162 ± 0.001 µM and the IC50 [1, 5] was 181.1 ± 0.6 µM.

For `N=C1CCCN1Cc1[nH]c(=O)[nH]c(=O)c1Cl` [Tipiracil, tipiracil, reference compound], the IC50 [1, 5] was 0.014 ± 0.002 µM.

For `O=C(O)c1cc(O)c(O)c(O)c1` [Compound 16, Gallic acid], the “TP Inhibition IC50 (μM ± SEM)” value [1] was “inactive”.

In the case of `COc1cc(C(=O)O)ccc1O` [Compound 17, Vanillic acid], the “TP Inhibition IC50 (μM ± SEM)” value [1] is reported as “inactive”.

In the case of `COc1c(O)cc2oc(-c3ccc(O)c(O)c3)c(O)c(=O)c2c1O` [Compound 5], the Type of inhibition [3] is reported as “Mixed”, the Ki [3, 6] is reported as 341.1 ± 0.01 µM and the IC50 [1, 5] is reported as 76.8 ± 1.1 µM.

From publication PMC6863536, “Natural compounds as angiogenic enzyme thymidine phosphorylase inhibitors: In vitro biochemical inhibition, mechanistic, and in silico modeling studies” (PLoS ONE, 2019)
